Data: patent publication US20150272939A1, “Identification of Small Molecule Inhibitors of Jumonji AT-Rich Interactive Domain 1A (JARID1A) and 1B (JARID1B) Histone Demethylase” (Yale University, priority 2012, published 2015)
Where a name gives a salt, the structure may show the parent alone. Read-outs that look alike come from different tables or passages of the source.

What was measured:
[1] = biological target: T1, JARID1B (Homo sapiens, UniProt Q9UGL1); test: FLAG-JARID1B histone demethylase assay with AlphaScreen detection (HTS and dose response); format: biochemical; details: for Assay − Artifact Signal (percent): assay signal minus artifact signal; for inhibition at 20 µM: read-out: Inhibitory effect (percent); for Assay Signal (percent): effect of compound in JARID1B AlphaScreen assay;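 on Assay Signal (percent): compound tested at 20 µM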;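 on Assay − Artifact Signal (percent): compound tested at 20 µM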;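 on all read-outs here: FLAG-tagged JARID1B at 4 nM acting on a biotinylated H3K4me3 peptide, demethylation read by AlphaScreen luminescence, with hits checked against bio-H3K4me2 without enzyme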
T1 construct: The FLAG tagged full length JARID1B enzyme was expressed in Sf21 insect cells using FLAG-JARID1B baculoviruses; FLAG (N); made in house; host or cells: Sf21 insect cells (baculovirus)

[2] = AlphaScreen counterscreen against bio-H3K4me2 peptide in the absence of enzyme (artifact signal); details: for Artifact Signal (percent): effect of the compound when incubated with bio-H3K4me2 peptide (counterscreen, no enzyme);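 on all read-outs here: counterscreen run without enzyme against bio-H3K4me2 peptide to remove false positive hits from the JARID1 demethylase AlphaScreen screen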
[3] = high-throughput screen, compound 20 μM, IDs marked *: additional hits under reaction condition with 1 mM α-KG
[4] = high-throughput screen, compound 20 μM, standard demethylase conditions (10 μM α-KG, 50 μM Fe (II))
[5] = validation of HTS actives, total signal before subtraction of artifact signal
[6] = counterscreen, bio-H3K4me2 peptide, no enzyme

T1 sequence (Q9UGL1 whole entry): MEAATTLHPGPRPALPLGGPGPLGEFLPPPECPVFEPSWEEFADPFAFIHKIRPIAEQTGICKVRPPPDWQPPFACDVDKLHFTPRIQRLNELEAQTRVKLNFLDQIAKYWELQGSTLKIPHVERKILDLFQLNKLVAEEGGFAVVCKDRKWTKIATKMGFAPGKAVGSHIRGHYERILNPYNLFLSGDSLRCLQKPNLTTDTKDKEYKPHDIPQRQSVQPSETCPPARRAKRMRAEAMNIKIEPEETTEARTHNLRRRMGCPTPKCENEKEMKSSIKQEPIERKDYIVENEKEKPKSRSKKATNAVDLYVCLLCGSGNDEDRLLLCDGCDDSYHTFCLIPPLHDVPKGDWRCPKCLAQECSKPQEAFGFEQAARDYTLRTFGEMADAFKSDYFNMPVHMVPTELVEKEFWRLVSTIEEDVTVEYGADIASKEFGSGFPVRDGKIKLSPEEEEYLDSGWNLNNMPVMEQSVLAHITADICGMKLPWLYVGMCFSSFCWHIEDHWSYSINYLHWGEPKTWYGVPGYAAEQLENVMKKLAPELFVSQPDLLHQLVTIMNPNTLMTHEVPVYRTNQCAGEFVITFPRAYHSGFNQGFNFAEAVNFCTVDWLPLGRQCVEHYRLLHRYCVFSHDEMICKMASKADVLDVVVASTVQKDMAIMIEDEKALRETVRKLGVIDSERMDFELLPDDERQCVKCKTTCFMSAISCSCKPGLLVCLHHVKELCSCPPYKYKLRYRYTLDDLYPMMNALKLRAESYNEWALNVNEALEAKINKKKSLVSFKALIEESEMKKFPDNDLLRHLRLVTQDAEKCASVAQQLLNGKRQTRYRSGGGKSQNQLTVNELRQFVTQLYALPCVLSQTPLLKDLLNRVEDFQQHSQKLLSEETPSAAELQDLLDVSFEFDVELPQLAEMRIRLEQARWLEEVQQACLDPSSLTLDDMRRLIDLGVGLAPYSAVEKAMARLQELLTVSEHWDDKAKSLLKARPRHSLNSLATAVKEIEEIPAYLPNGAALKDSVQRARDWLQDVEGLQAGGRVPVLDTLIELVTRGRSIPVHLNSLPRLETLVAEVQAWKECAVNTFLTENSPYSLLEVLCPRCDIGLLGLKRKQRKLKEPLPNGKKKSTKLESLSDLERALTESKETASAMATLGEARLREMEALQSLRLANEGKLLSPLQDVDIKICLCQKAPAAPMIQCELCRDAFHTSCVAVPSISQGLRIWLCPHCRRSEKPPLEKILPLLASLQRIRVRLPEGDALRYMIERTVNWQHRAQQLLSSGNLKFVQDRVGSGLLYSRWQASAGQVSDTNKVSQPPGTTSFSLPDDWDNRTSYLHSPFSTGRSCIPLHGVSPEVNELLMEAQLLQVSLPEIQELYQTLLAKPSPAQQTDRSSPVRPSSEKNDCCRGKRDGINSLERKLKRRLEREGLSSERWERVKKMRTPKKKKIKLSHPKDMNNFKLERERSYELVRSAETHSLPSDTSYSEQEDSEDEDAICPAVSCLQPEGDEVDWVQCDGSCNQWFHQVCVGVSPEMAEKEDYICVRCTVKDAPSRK

SMILES	Assay − Artifact Signal (percent) [1] [%]	Assay Signal (percent) ([1]; validation of HTS actives) [%]	Artifact Signal (percent) [2] [%]	inhibition at 20 µM [1, 4] [%]	further results
Oc1cc(O)c2c(c1)O[C@H](c1ccc(O)c(O)c1)[C@@H](O)C2 [YU033631, CIANIDANOL, reference compound]	26.12	30.96	4.84		inhibition at 20 µM [1, 3]: 41.5%
C[C@@H]1O[C@@H](OC[C@H]2OC(OC3=C(c4ccc(O)c(O)c4)Oc4cc(O)cc(O)c4C3O)[C@H](O)[C@@H](O)[C@@H]2O)[C@H](O)[C@H](O)[C@H]1O (stereo partly drawn) [YU033654, RUTOSIDE (rutin), reference compound]	52.71	58.08	5.37	65.8	
C[n+]1cc2c3c(ccc2c2ccc4cc5c(cc4c21)OCO5)OCO3 [YU033662, SANGUINARINE SULFATE, reference compound]	58.64	67.85	9.21		Inhibitory effect (percent) [1, 4]: 86.66%
O=C1c2c(O)cccc2Cc2cccc(O)c21 [YU033694, ANTHRALIN, reference compound]	13.30	22.65	9.35		inhibition at 20 µM [1, 3]: 51.7%
CN1CCc2cccc3c2C1Cc1ccc(O)c(O)c1-3 (stereo not drawn) [YU033696, APOMORPHINE HYDROCHLORIDE, reference compound]	58.49	66.78	8.29	89.4	
Cn1cnc([N+](=O)[O-])c1Sc1[nH]cnc2ncnc1-2 [YU033698, AZATHIOPRINE, reference compound]				88.8	Validation result of HTS active: effect of the compound in the JARID1B AlphaScreen demethylase assay [1, 5]: 10.40; Artifact signal: effect of the compound when it is incubated with bio-H3K4me2 peptide [2, 6]: 5.31
NC(CO)C(=O)NNCc1ccc(O)c(O)c1O (stereo not drawn) [YU033702, BENSERAZIDE HYDROCHLORIDE, reference compound]	52.50	73.96	21.46	70.6	
Oc1c(Cl)cc(Cl)cc1Sc1cc(Cl)cc(Cl)c1O [YU033712, BITHIONOL, reference compound]					inhibition at 20 µM [1, 3]: 47.6%; Validation result of HTS active: effect of the compound in the JARID1B AlphaScreen demethylase assay [1, 5]: 0.82; Artifact signal: effect of the compound when it is incubated with bio-H3K4me2 peptide [2, 6]: −3.70
N=C(NCCCCCCNC(=N)NC(=N)Nc1ccc(Cl)cc1)NC(=N)Nc1ccc(Cl)cc1 [YU033734, CHLORHEXIDINE, reference compound]				41	Validation result of HTS active: effect of the compound in the JARID1B AlphaScreen demethylase assay [1, 5]: −1.12; Artifact signal: effect of the compound when it is incubated with bio-H3K4me2 peptide [2, 6]: 1.97
CN(C)[C@@H]1C(O)=C(C(N)=O)C(=O)[C@@]2(O)C(O)=C3C(=O)c4c(O)ccc(Cl)c4[C@@](C)(O)[C@H]3C[C@@H]12 [YU033743, AUREOMYCIN, reference compound]	27.81	28.24	0.43		inhibition at 20 µM [1, 3]: 90%
CCN(CC)CCOc1ccc(/C(=C(\Cl)c2ccccc2)c2ccccc2)cc1 [YU033752, CLOMIPHENE CITRATE, reference compound]	15.81	16.67	0.86	47	
[O-][n+]1ccccc1[S-].[O-][n+]1ccccc1[S-].[Zn+2] [YU033800, PYRITHIONE ZINC, reference compound]					Inhibitory effect (percent) [1]: 99.02%; Validation effect minus artifact signal [1]: 1.60; Validation result of HTS active: effect of the compound in the JARID1B AlphaScreen demethylase assay [1]: −18.35; Artifact signal: effect of the compound when it is incubated with bio-H3K4me2 peptide [2]: −19.95
NCCc1ccc(O)c(O)c1 [YU033802, DOPAMINE HYDROCHLORIDE, reference compound]	32.68	42.68	10.00	51.3	Inhibitory effect (percent) ([1]; high-throughput screen, compound 20 μM, standard demethylase conditions (10 μM α-KG, 50 μM Fe (II)), HYDROCHLORIDE): 46.86%; Validation result of HTS active: effect of the compound in the JARID1B AlphaScreen demethylase assay [1, 5]: −1.42; Artifact signal: effect of the compound when it is incubated with bio-H3K4me2 peptide [2, 6]: −2.83
CNC[C@H](O)c1ccc(O)c(O)c1 [YU033809, ADRENALINE BITARTRATE, reference compound]	47.54	40.90	−6.64	56.3	
CN(C)c1ccc(C(=C2C=CC(=[N+](C)C)C=C2)c2ccc(N(C)C)cc2)cc1 [YU033841, GENTIAN VIOLET, reference compound]				106	Validation result of HTS active: effect of the compound in the JARID1B AlphaScreen demethylase assay [1, 5]: 96.28; Artifact signal: effect of the compound when it is incubated with bio-H3K4me2 peptide [2, 6]: 93.38
NC(=O)NO [YU033863, HYDROXYUREA, reference compound]	21.20	13.20	−8.00		Inhibitory effect (percent) [1, 3]: 43.49%
NNC(=O)c1ccncc1 [YU033872, ISONIAZID, reference compound]	51.63	45.10	−6.34	54.5	
CC(C)NCC(O)c1ccc(O)c(O)c1 (stereo not drawn) [YU033874, ISOPROTERENOL HYDROCHLORIDE, reference compound]	35.20	32.81	−2.38	47.7	
S=c1[nH]cnc2nc[nH]c12 [YU033892, MERCAPTOPURINE, reference compound]	35.94	33.79	−2.15		inhibition at 20 µM [1, 3]: 56%
COc1ccccc1OCC(O)COC(N)=O (stereo not drawn) [YU033898, METHOCARBAMOL, reference compound]				93.2	Validation result of HTS active: effect of the compound in the JARID1B AlphaScreen demethylase assay [1, 5]: 0.74; Artifact signal: effect of the compound when it is incubated with bio-H3K4me2 peptide [2, 6]: 18.66
C[C@](N)(Cc1ccc(O)c(O)c1)C(=O)O [YU033903, METHYLDOPA, reference compound]	30.75	50.21	−0.54	69.1	
NC[C@H](O)c1ccc(O)c(O)c1 [YU033927, NOREPINEPHRINE, reference compound]	37.97	39.80	1.83	58.5	
NCCc1cc(O)c(O)cc1O [YU033940, OXIDOPAMINE HYDROCHLORIDE, reference compound]	19.88	36.84	16.96	41	
COc1cc(NC(C)CCCN)c2ncccc2c1 (stereo not drawn) [YU033971, PRIMAQUINE DIPHOSPHATE, reference compound]	50.60	46.49	−4.11	57.5	
Nc1nc2nc[nH]c2c(=S)[nH]1 [YU034024, THIOGUANINE, reference compound]	36.52	36.89	0.37		inhibition at 20 µM [1, 3]: 52.2%
CC(C)NNC(=O)c1ccncc1 [YU034066, IPRONIAZID SULFATE, reference compound]	69.09	72.51	3.41	75.9	
O=C([O-])c1ccccc1-c1c2cc(Br)c(=O)cc-2oc2[c]([Hg][OH])c([O-])c(Br)cc12 [YU034068, MERBROMIN, reference compound]					Inhibitory effect (percent) [1, 4]: 99.27%; Validation result of HTS active: effect of the compound in the JARID1B AlphaScreen demethylase assay [1, 5]: 3.43; Artifact signal: effect of the compound when it is incubated with bio-H3K4me2 peptide [2, 6]: −1.81
